Test results as given in the NIST ThermoML archive (doi:10.1021/je1008747).

Conditions: Liquid

C[C@H](O)C(=O)[O-].C[N+](C)(C)CCO
Conditions | mass density [kg/m3]
293.15 K, 101.33 kPa | 1143.2
298.15 K, 101.33 kPa | 1139.9
303.15 K, 101.33 kPa | 1136.8
308.15 K, 101.33 kPa | 1133.6
312.4 K, 100 kPa | 1130
312.4 K, 10000 kPa | 1133
312.4 K, 20000 kPa | 1137
312.4 K, 30000 kPa | 1140
312.4 K, 40000 kPa | 1143
312.4 K, 50000 kPa | 1146
312.4 K, 60000 kPa | 1150
312.4 K, 70000 kPa | 1152
312.4 K, 80000 kPa | 1155
312.4 K, 90000 kPa | 1157
312.4 K, 100000 kPa | 1160
312.4 K, 110000 kPa | 1163
312.4 K, 120000 kPa | 1166
312.4 K, 130000 kPa | 1168
312.4 K, 140000 kPa | 1171
312.4 K, 150000 kPa | 1173
312.4 K, 160000 kPa | 1176
312.4 K, 170000 kPa | 1178
312.4 K, 180000 kPa | 1181
312.4 K, 190000 kPa | 1183
312.4 K, 200000 kPa | 1185
313.15 K, 101.33 kPa | 1130.5
318.15 K, 101.33 kPa | 1127.3
323.15 K, 101.33 kPa | 1124.2
328.15 K, 101.33 kPa | 1121.1
332.3 K, 10000 kPa | 1121
332.3 K, 20000 kPa | 1124
332.3 K, 30000 kPa | 1128
332.3 K, 40000 kPa | 1131
332.3 K, 50000 kPa | 1134
332.3 K, 60000 kPa | 1137
332.3 K, 70000 kPa | 1140
332.3 K, 80000 kPa | 1143
332.3 K, 90000 kPa | 1146
332.3 K, 100000 kPa | 1149
332.3 K, 110000 kPa | 1152
332.3 K, 120000 kPa | 1154
332.3 K, 130000 kPa | 1157
332.3 K, 140000 kPa | 1160
332.3 K, 150000 kPa | 1162
332.3 K, 160000 kPa | 1165
332.3 K, 170000 kPa | 1168
332.3 K, 180000 kPa | 1170
332.3 K, 190000 kPa | 1172
332.3 K, 200000 kPa | 1175
333.15 K, 101.33 kPa | 1118.1
338.15 K, 101.33 kPa | 1115.1
343.15 K, 101.33 kPa | 1112.2
348.15 K, 101.33 kPa | 1109.3
352.2 K, 10000 kPa | 1109
352.2 K, 20000 kPa | 1113
352.2 K, 30000 kPa | 1116
352.2 K, 40000 kPa | 1120
352.2 K, 50000 kPa | 1123
352.2 K, 60000 kPa | 1126
352.2 K, 70000 kPa | 1129
352.2 K, 80000 kPa | 1132
352.2 K, 90000 kPa | 1135
352.2 K, 100000 kPa | 1138
352.2 K, 110000 kPa | 1141
352.2 K, 120000 kPa | 1144
352.2 K, 130000 kPa | 1146
352.2 K, 140000 kPa | 1149
352.2 K, 150000 kPa | 1152
352.2 K, 160000 kPa | 1154
352.2 K, 170000 kPa | 1157
352.2 K, 180000 kPa | 1159
352.2 K, 190000 kPa | 1162
352.2 K, 200000 kPa | 1165
353.15 K, 101.33 kPa | 1106.4
372.3 K, 10000 kPa | 1098
372.3 K, 20000 kPa | 1101
372.3 K, 30000 kPa | 1105
372.3 K, 40000 kPa | 1109
372.3 K, 50000 kPa | 1112
372.3 K, 60000 kPa | 1115
372.3 K, 70000 kPa | 1118
372.3 K, 80000 kPa | 1122
372.3 K, 90000 kPa | 1125
372.3 K, 100000 kPa | 1128
372.3 K, 110000 kPa | 1130
372.3 K, 120000 kPa | 1133
372.3 K, 130000 kPa | 1136
372.3 K, 140000 kPa | 1139
372.3 K, 150000 kPa | 1142
372.3 K, 160000 kPa | 1144
372.3 K, 170000 kPa | 1147
372.3 K, 180000 kPa | 1150
372.3 K, 190000 kPa | 1152
372.3 K, 200000 kPa | 1155
392.4 K, 10000 kPa | 1086
392.4 K, 20000 kPa | 1090
392.4 K, 30000 kPa | 1094
392.4 K, 40000 kPa | 1098
392.4 K, 50000 kPa | 1101
392.4 K, 60000 kPa | 1105
392.4 K, 70000 kPa | 1108
392.4 K, 80000 kPa | 1111
392.4 K, 90000 kPa | 1114
392.4 K, 100000 kPa | 1117
392.4 K, 110000 kPa | 1121
392.4 K, 120000 kPa | 1124
392.4 K, 130000 kPa | 1126
392.4 K, 140000 kPa | 1129
392.4 K, 150000 kPa | 1132
392.4 K, 160000 kPa | 1135
392.4 K, 170000 kPa | 1138
392.4 K, 180000 kPa | 1140
392.4 K, 190000 kPa | 1143
392.4 K, 200000 kPa | 1146
